# Experimental data published in patent US6538015B1, “Anti-HIV pyrazole derivatives” (Hoffmann-La Roche Inc., priority 2001, dated 2003).
# Where two headings read alike, the source gives them in different places.
# Key:
# [1] = molecular target: HIV-1 RT (Human immunodeficiency virus type 1 group M subtype B, UniProt P04585); test: HIV-1 Reverse Transcriptase Assay: Inhibitor IC50 Determination; type: biochemical
# Procedure: HIV-1 Reverse Transcriptase Assay: Inhibitor IC50 Determination
# HIV-1 RT assay was carried out in 96-well Millipore filtermat NOB50 plates using purified recombinant enzyme and a poly(rA)/oligo(dT)16 template-primer in a total volume of 50 μL. The assay constituents were 50 mM Tris/HCl, 50 mM NaCl, 1 mM EDTA, 6 mM MgC2, 5 μM dTTP, 0.1 μCi [^3H] dTTP, 5 μg/ml poly (rA) pre annealed to 2.5 μg/ml oligo (dT)16 and a range of inhibitor concentrations in a final concentration of 10% DMSO. Reactions were initiated by adding 5 nM HIV-1 RT and after incubation at 37° C. for 30 min, they were stopped by the addition of 50 μl ice cold 20% TCA and allowed to precipitate at 4° C. for 30 min. The precipitates were collected by applying vacuum to the plate and sequentially washing with 2×200 μl of 10% TCA and 2×200 μl 70% ethanol. Finally the plates were dried and radioactivity counted in a Wallac Microbeta 1450 after the addition of 15 VI scintillation fluid per well. IC50's were calculated by plotting % inhibition versus log10 inhibitor concentrations.
# [2] = system: HXB2-strain of HIV; test: Antiviral assay: protection of HIV-infected MT4 cells from cell death (MTT); type: cell-based; details: Human immunodeficiency virus 1, 120 h; MT4 cells infected with HXB2-strain of HIV, 5 d, MTT cell viability
# Procedure: Anti-HIV antiviral activity was assessed using an adaptation of the method of Pauwels et al. {Pauwels et al., 1988, J Virol Methods 20:309-321}. The method is based on the ability of compounds to protect HIV-infected T lymphoblastoid cells (MT4 cells) from cell-death mediated by the infection. The endpoint of the assay was calculated as the concentration of compound at which the cell viability of the culture was preserved by 50% (‘50% inhibitory concentration’, IC50). The cell viability of a culture was determined by the uptake of soluble, yellow 3-[4,5-dimethylthiazol-2-yl]-2,5-diphenyltetrazolium bromide (MTT) and its reduction to a purple insoluble formazan salt. After solubilization, spectrophotometric methods were employed to measure the amount of formazan product.
# MT4 cells were prepared to be in logarithmic-phase growth and a total of 2×10^6 cells infected with the HXB2-strain of HIV at a multiplicity of 0.0001 infectious units of virus per cell in a total volume of between 200-500 microliters. The cells were incubated with virus for one h at 37° C. before removal of virus. The cells are then washed in 0.01 M phosphate buffered saline, pH 7.2 before being resuspensed in culture medium for incubation in culture with serial dilutions of test compound. The culture medium used was RPMI 1640 without phenol red, supplemented with penicillin, streptomycin, L-glutamine and 10% fetal calf serum (GM10).
# Test compounds were prepared as 2 mM solutions in dimethyl sulphoxide (DMSO). Four replicate, serial 2-fold dilutions in GM10 were then prepared and 50 microliters amounts placed in 96-well plates over a final nanomolar concentration range of 625-1.22. Fifty microliters GM10 and 3.5×10^4 infected cells were then added to each well. Control cultures containing no cells (blank), uninfected cells (100% viability; 4 replicates) and infected cells without compound (total virus-mediated cell death; 4 replicates) were also prepared. The cultures were then incubated at 37° C. in a humidified atmosphere of 5% CO2 in air for 5 d.
# A fresh solution of 5 mg/mL MTT was prepared in 0.01 M phosphate buffered saline, pH 7.2 and 20 microliters added to each culture. The cultures were further incubated as before for 2 h. They were then mixed by pipetting up and down and 170 microliters of Triton X-100 in acidified isopropanol (10% v/v Triton X-100 in 1:250 mixture of concentrated HCl in isopropanol). When the formazan deposit was fully solubilized by further mixing, the absorbance (OD) of the cultures was measured at 540 nm and 690 nm wavelength (690 nm readings were used as blanks for artefacts between wells). The percent protection for each treated culture can be calculated from the equation: [formula]
# [3] = purified recombinant enzyme, poly(rA)/oligo(dT)16 template-primer, 37° C. 30 min, read-out: RT IC50/nM
SMILES,"IC50 [1, 3] [nM]",IC50 [2] [nM],IC50 [1] [nM]
CC(C)n1nc(CO)c(Cc2ccc(F)c(F)c2)c1Sc1cc(Cl)cc(Cl)c1,123,,
CC(C)n1nc(CN)c(Cc2ccncc2)c1Sc1cc(Cl)cc(Cl)c1,714,7,
CC(C)n1nc(CO)c(Cc2ccncc2)c1Sc1cc(F)cc(F)c1,206,6,
COC(=O)NCc1nn(C(C)C)c(Sc2cc(Cl)cc(Cl)c2)c1Cc1ccncc1,525,,
CC(C)n1nc(CNS(C)(=O)=O)c(Cc2ccncc2)c1Sc1cc(Cl)cc(Cl)c1,7920,,
CC(C)n1nc(COC(N)=O)c(CO)c1Sc1cc(Cl)cc(Cl)c1,6300,,
CC(C)n1nc(CO)c(COCc2cccc(C#N)c2)c1Sc1cc(Cl)cc(Cl)c1,250,,
Cc1ncc(Br)c(Cc2c(CO)nn(C(C)C)c2Sc2cc(Cl)cc(Cl)c2)n1,518,,
CC(C)n1nc(CO)c(Cc2cccs2)c1Sc1cc(Cl)cc(Cl)c1,434,93,
CC(C)n1nc(COC(N)=O)c(Cc2ccncc2)c1Sc1cc(Cl)cc(Br)c1,31,3,
CC(C)n1nc(COC(N)=O)c(Cc2ccncc2)c1Sc1cc(Cl)cc(Cl)c1,,1,32
CC(C)n1nc(COC(N)=O)c(COCc2ccncc2)c1Sc1cc(Cl)cc(Cl)c1,99,13,
CC(C)n1nc(CO)c(Cc2ccncc2)c1Sc1cc(Cl)cc(Cl)c1,62,1.3,
CC(C)n1nc(CNC(N)=O)c(Cc2ccncc2)c1Sc1cc(Cl)cc(Cl)c1,44,1,
CC(C)n1nc(COC(N)=O)c(Cc2cccs2)c1Sc1cc(Cl)cc(Cl)c1,211,30,
COc1cc(Cc2c(CO)nn(C(C)C)c2Sc2cc(Cl)cc(Cl)c2)ccn1,51,38,
CCn1nc(CO)c(Cc2ccncc2)c1Sc1cc(Cl)cc(Cl)c1,183,30,
CCc1c(COC(N)=O)nn(C(C)C)c1Sc1cc(Cl)cc(Cl)c1,61,,
